The record followed here is ChEMBL document CHEMBL1127334, “Discovery of new non-phospholipid inhibitors of the secretory phospholipases A2” (J Med Chem, 1994).

This assay concerns the target T1, Phospholipase A2, membrane associated (Homo sapiens, UniProt P14555).
T1 sequence (P14555 whole entry): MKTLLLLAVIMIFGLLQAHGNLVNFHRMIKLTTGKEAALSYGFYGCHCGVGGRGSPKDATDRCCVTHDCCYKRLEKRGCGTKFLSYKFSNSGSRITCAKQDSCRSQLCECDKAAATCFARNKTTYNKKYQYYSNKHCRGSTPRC
Nature of the assay: Compound was tested for in vitro activity against S-phospholipase A2 (s-PLA2) isolated from human platelets.
One may read the IC50 as the concentration needed to halve the response being measured. In turn, `CCCCCC/C=C/CC(=O)N[C@H](CCC(=O)O)CSc1ccc2ccccc2c1` returned an IC50 of 12000 nM.

Turning to `CCCCCC/C=C/CC(=O)N[C@@H](CCC(=O)O)CSc1ccc2ccccc2c1`, half-maximal inhibition (IC50) was put at 1850 nM. As for `CCCCCC/C=C/CC(=O)N[C@H](CSc1ccc(Cc2ccccc2)cc1)CC(=O)O`, the midpoint of inhibition, the IC50, lay at 3800 nM. This IC50 lies about 2.1-fold higher than the previous one. The compound `O=C(O)C[C@@H](CSc1ccc(Cc2ccccc2)cc1)NC(=O)CCCCCCc1ccccc1` came in with a half-maximal inhibitory concentration (IC50) of 65 nM. This IC50 lies about 58-fold lower than the previous one.
